Data reported in patent US8889731B2, “Compounds, compositions and methods for repelling blood-feeding arthropods and deterring their landing and feeding” (Contech Enterprises Inc., priority 2007, dated 2014).
Read-outs that look alike come from different tables or passages of the source.

Key:
mosquitoes = experiment: General bioassay procedure with garlic oil, its components and fractions (mosquito species not given); assay type: in vivo
Description: (§1) Candidate repellents and deterrents were bioassayed according to a modified protocol from the World Health Organization (1996). At least 1 hour prior to each bioassay, 75 host-seeking non blood-fed, nulliparous, 5- to 8-day-old female Aedes aegypti, Anopheles gambiae or Culex quinquefasciatus were placed into a wood-framed cage (26.5 cm on each side and 42.5 cm high) with a wooden floor, screened mesh sides and top, and a clear acrylic front fitted with a cotton stockinette sleeve (10 cm diameter). The test subject's arm was covered with an elbow-length polyethylene glove with an excised patch (16.6 cm long, 6 cm wide) to expose the ventral forearm of the test subject. Candidate deterrents were formulated in mineral (paraffin) oil and applied to the exposed forearm 5 min prior to inserting the arm into the cage. The inserted arm remained in the cage for 3 min every 30 min. Prior to each 3-min bioassay period, the hand of the untreated arm was inserted into the cage to ascertain that it received 10 bites within 30 sec as an indication of “biting pressure”.
(§2) The bioassay was terminated when the treated arm received ≧2 bites in one 3-min bioassay period or one bite in each of two consecutive bioassay periods. The time elapsed from experiment initiation to first bite was recorded as deterrent failure or complete protection time.
(§3) N,N-diethyl-m-toluamide formulated in ethanol at a corresponding dose served as a positive control, and mineral oil by itself served as a negative control. On each day, only one candidate compound was tested, ensuring that any residual material in the chamber had disappeared before the next bioassay.
Garlic oil (Allium sativum—Mexico; Clearwater Soap Works, Box 1775 RR1, Clearwater, BC V0E 1N0, Canada) was formulated in mineral oil and tested using the general bioassay procedure described in EXAMPLE 2 at a dose of 0.1 mg per cm^2 of arm surface. It expressed repellence and deterrence for ˜30 min.
Some of the 10 components in FIG. 1 were bioassayed singly (see general bioassay procedure) and in various combinations, all of which were as deterrent to mosquitoes as garlic oil.
To determine the most deterrent component(s) in garlic oil, it was fractionated by HPLC into four fractions, each containing one or more of the EAD-active components (compounds 1-10 in FIG. 1 and 11-14 in TABLE 2). Each fraction was then bioassayed and shown to be similarly effective in repelling and deterring mosquitoes.
(§4) Components with high molecular weight (>250 daltons) are advantageous in that they: 1) dissipate slowly from treated surfaces; 2) provide long-lasting protection against mosquitoes and 3) convey little, if any, offensive smell. The relative abundance of such components was enhanced by treating garlic oil under vacuum, thus stripping away lower-boiling components. In GC-EAD analyses of the high-boiling residue, four components elicited responses from mosquito antennae.

Aedes aegypti = experiment: Arm-in-cage repellent/deterrent bioassay on exposed human forearm (modified WHO protocol), Aedes aegypti; assay type: in vivo; conditions: for pest or weed control at 0.1 mg/cm2: Aedes aegypti, topical, (C-T)/C x 100 at time of failure, read-out: Percent repellence
Description: as §1, §2, §3
To determine the repellence and deterrence of 8-allylsulfanyloctan-1-ol against Aedes aegypti, a 5%, 10% or 25% formulation of 8-allylsulfanyloctan-1-ol in mineral oil was applied in Experiments 1-3 at a dose of 1.5 mg (total composition) per cm^2 to the skin of the test person, and was bioassayed according to the protocol described under EXAMPLE 2. In Experiment 4, mineral oil by itself served as a negative control and was bioassayed at the same dose (1.5 mg per cm^2) as in Experiments 1-3. Each of Experiments 1-4 was replicated four times.
To compare the repellence and deterrence against Aedes aegypti caused by 8-allylsulfanyloctan-1-ol as a single active ingredient and by 8-allylsulfanyloctan-1-ol in combination with vanillin as a second active ingredient, we tested a 6.7% emulsion of vanillin (Experiment 14), a 6.7% emulsion of 8-allylsulfanyloctan-1-ol (Experiment 15), and a 13.4% emulsion of 8-allylsulfanyloctan-1-ol plus vanillin (1:1 ratio) (Experiment 16). 8-Allylsulfanyloctan-1-ol and vanillin were formulated in Emulsion No. 1 (see EXAMPLE 9). In each of Experiments […], test stimuli were applied at a dose of 1.5 mg per cm^2 to the skin of the test person, and were bioassayed according to the protocol described under EXAMPLE 2. In Experiment 17, Emulsion No. 1 served as a positive control and was tested at the same dose (1.5 mg per cm^2) as in Experiments 14-16.
To be able to compare the repellence and deterrence caused by N,N-diethyl-m-toluamide and by 8-allylsulfanyloctan-1-ol plus vanillin in Emulsion No. 1 (EXAMPLE 9), Experiment 26 tested a 6.7% formulation of N,N-diethyl-m-toluamide in ethanol (the best formulant for DEET) for protection from bites by Aedes egypti. In each replicate, a dose of 1.5 mg per […] was applied to the skin of the test person and bioassayed according to the protocol described under EXAMPLE 2.
To be able to further compare the deterrence caused by N,N-diethyl-m-toluamide with that caused by 8-allylsulfanyloctan-1-ol plus vanillin, Experiment 27 tested a 10.4% formulation of N,N-diethyl-m-toluamide in ethanol, and Experiment 28 tested 8-allylsulfanyloctan-1-ol (10.4%) plus vanillin (7.9%) in Emulsion No. 2 (EXAMPLE 10). […]

[1] = system: male or female Aedes aegypti antennae; experiment: Coupled gas chromatographic-electroantennographic detection (GC-EAD) of garlic oil extract
Description: FIG. 1 illustrates flame ionization detector (FID) and electroantennograhic detector (EAD: male or female Aedes aegypti antennae) responses to aliquots of the low boiling temperature portion of garlic oil extract. Chromatography: Hewlett Packard (HP) gas chromatograph equipped with a fused silica column (30 m×0.32 mm ID) coated with DB-5; injector and detector temperature: 250° C.; temperature program: 50° C.
Aliquots of garlic oil extracts were then subjected to coupled gas chromatographic-electroantennographic detection (GC-EAD) analysis. Fourteen components (10 shown in FIG. 1) elicited responses from female or male mosquito antennae. Some of these components were isolated by high-performance liquid chromatography (HPLC) for identification by nuclear magnetic resonance spectroscopy (NMR). Other components were identified (compounds 11-14 in TABLE 2) by coupled GC-mass spectrometry and by retention index calculations. […] Four of the 10 components in FIG. 1 were tentatively identified by comparing their mass spectra and retention indices with those reported in the literature (Block et al. 1998).
as §4

[2] = Dosage >0.1 mg/cm^2 (so in the source)

Question: Which results are given for `C=CCSSCCCSSCC=C` [Compound 11, 4,5,9,10-tetrathiatrideca-1,12-diene]?
Answer: repellent and deterrent effect in bioassays (in words) (mosquitoes): strong repellent and deterrent effect; pest or weed control at 0.1 mg/cm2 (Aedes aegypti; Dosage 0.1 mg/cm^2): 85%; pest or weed control at 0.1 mg/cm2 (Aedes aegypti; [2]): 92%; Failure time (Aedes aegypti; Dosage 0.1 mg/cm^2, 0 = immediate failure): 0 min; Failure time (Aedes aegypti; [2]): 67.7 min; electroantennographic (EAD) response of mosquito antennae [1]: Antennal stimulatory
